In patent US20230057847A1, “GLP2 RECEPTOR AGONISTS AND METHODS OF USE” (The Scripps Research Institute, priority 2019, published 2023):

Experiments:
[1] = test system: mouse model of environmental enteric dysfunction (EED); test: Weaning undernutrition mouse model of environmental enteric dysfunction (EED); format: in vivo, mice
Method: A weaning undernutrition model was used to assess the ability of GLP2-2G-10Nle-1K-EX4-K5 to treat environmental enteric dysfunction (EED). All dams were placed on an isocaloric Northeast Brazil (Regional Basic Diet—RBD), which was moderately deficient in protein, fat and minerals when their pups were 10 days old. At weaning (3 weeks of age), pups were placed on either a standard control diet (CD) or continued on RBD. At 4 weeks of age, weanlings were given drug or placebo (0.1 mg/kg formulated in PBS (vehicle)) once a day subcutaneously for 2-3 weeks. Bodyweight and food consumption were measured twice weekly. Stool was collected at weaning, 6 weeks of age, and 8 weeks of age for calorimetry and microbiome. Oral FITC-dextran was used as a measurement of barrier function. At 6 weeks of age, mice were euthanized, and jejunal tissue was collected for morphology, immunohistochemistry, and for chamber analysis of transmucosal resistance and permeability.

cyno monkey GLP2R = target: T1, cyno monkey GLP2R (Macaca fascicularis, UniProt G1E7B0); test: In vitro potency on cyno monkey GLP2R (665/615 ratio); format: cell-based
T1 sequence (G1E7B0 1-553): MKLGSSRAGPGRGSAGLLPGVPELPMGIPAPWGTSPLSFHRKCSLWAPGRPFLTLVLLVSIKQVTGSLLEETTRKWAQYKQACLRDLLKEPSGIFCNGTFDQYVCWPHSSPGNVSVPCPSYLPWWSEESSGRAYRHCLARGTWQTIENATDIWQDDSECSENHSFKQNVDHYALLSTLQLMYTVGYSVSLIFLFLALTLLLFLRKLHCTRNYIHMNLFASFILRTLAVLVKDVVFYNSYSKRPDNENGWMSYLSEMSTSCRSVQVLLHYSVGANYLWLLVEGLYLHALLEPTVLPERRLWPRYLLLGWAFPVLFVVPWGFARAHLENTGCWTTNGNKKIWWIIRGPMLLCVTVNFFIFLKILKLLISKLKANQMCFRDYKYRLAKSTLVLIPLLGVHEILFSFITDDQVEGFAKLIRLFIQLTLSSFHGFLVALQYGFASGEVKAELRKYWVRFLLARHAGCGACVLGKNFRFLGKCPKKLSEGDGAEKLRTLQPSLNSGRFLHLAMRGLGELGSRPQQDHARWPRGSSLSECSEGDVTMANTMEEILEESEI

[2] = test system: mouse model of chronic colitis; test: Chronic DSS-induced colitis in C57BL/6 mice (GLP2-2G-1-EX4-L5A); format: in vivo; settings: 0.1 and 0.3 mg/kg SC QD 7 days, teduglutide 0.3 mg/kg SC QD
Method: Animals were treated daily for 7 days during the last DSS-induction cycle. Treatment was administered either subcutaneously (S) or intraperitoneally (IP) either once daily (QD) or twice daily (BID).
(§1) Bodyweight was monitored 3 times a week. Pharmacokinetic collection occurred 3 and 4 days prior to necropsy. At day 33, a necropsy was performed, and measurements were taken. These measurement included collecting terminal bleed; dissecting out the small intestine; measuring the length and weight of the small intestine; and recording the length and weight of the empty large intestine.

[3] = test system: mouse model of acute colitis; test: DSS-induced acute colitis in C57BL/6 mice (GLP2-2G-10Nle-1K-EX4-K5)
[4] = test system: mouse model of acute colitis; settings: in vivo
[5] = test system: chronic DSS-induced colitis model; test: Chronic DSS-induced colitis in C57BL/6 mice (GLP2-2G-10Nle-1-Ex4-L5A); format: in vivo; settings: teduglutide 0.5 mg/kg BID
Method: as §1, with “Treatment was administered either subcutaneously (S) or intraperitoneally (IP) either once daily (QD) or twice daily (BID). […] Bodyweight” for “Bodyweight”, “Pharmacokinetic collection occurred 3 and 4 days prior to necropsy.” left out

mouse GLP2R = target: T2, mouse GLP2R (Mus musculus, UniProt Q5IXF8); test: In vitro potency on mouse GLP2R (cAMP, 665/615 ratio); format: cell-based; settings: read-out: mGLP-2R IC50
T2 sequence (Q5IXF8 1-512): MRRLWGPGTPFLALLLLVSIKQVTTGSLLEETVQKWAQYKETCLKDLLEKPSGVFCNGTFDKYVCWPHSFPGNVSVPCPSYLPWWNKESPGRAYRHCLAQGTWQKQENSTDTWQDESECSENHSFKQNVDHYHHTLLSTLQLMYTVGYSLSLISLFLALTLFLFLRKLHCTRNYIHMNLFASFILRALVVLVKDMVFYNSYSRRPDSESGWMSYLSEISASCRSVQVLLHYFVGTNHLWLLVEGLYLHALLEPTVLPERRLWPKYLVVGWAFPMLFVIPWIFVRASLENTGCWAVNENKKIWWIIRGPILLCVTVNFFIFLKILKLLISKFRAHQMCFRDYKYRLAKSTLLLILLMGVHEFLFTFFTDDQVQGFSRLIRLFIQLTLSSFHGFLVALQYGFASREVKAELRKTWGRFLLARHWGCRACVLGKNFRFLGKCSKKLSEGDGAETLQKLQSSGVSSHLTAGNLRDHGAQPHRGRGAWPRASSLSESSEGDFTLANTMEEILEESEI

EC50 (cyno monkey GLP2R): 0.009 nM | IC50 (mouse GLP2R): 0.07 nM
Compound: CC[C@H](C)[C@H](NC(=O)[C@H](Cc1ccccc1)NC(=O)[C@H](CC(=O)O)NC(=O)[C@H](CCCNC(=N)N)NC(=O)[C@H](C)NC(=O)[C@H](C)NC(=O)[C@H](CC(C)C)NC(=O)[C@H](CC(N)=O)NC(=O)[C@H](CC(=O)O)NC(=O)[C@H](CC(C)C)NC(=O)[C@@H](NC(=O)[C@@H](NC(=O)[C@H](CC(N)=O)NC(=O)[C@H](CCSC)NC(=O)[C@H](CCC(=O)O)NC(=O)[C@H](CC(=O)O)NC(=O)[C@H](CO)NC(=O)[C@H](Cc1ccccc1)NC(=O)[C@H](CO)NC(=O)CNC(=O)[C@H](CC(=O)O)NC(=O)CNC(=O)[C@@H](N)Cc1c[nH]cn1)[C@@H](C)O)[C@@H](C)CC)C(=O)N[C@@H](CC(N)=O)C(=O)N[C@@H](Cc1c[nH]c2ccccc12)C(=O)N[C@@H](CC(C)C)C(=O)N[C@H](C(=O)N[C@@H](CCC(N)=O)C(=O)N[C@H](C(=O)N[C@@H](CCCCN)C(=O)N[C@H](C(=O)N[C@H](C(=O)N[C@@H](CC(=O)O)C(=O)O)[C@@H](C)O)[C@@H](C)CC)[C@@H](C)O)[C@@H](C)CC [Teduglutide, teduglutide, reference compound]
intestinal permeability (FITC-dextran) ([1]; CD females vs untreated): significant decreases in permeability | small intestine wet body weight/body weight ([1]; CD females vs untreated): significant increase | crypt depths ([1]; CD males vs untreated): longer crypt depths | intestinal permeability (FITC-dextran) ([1]; CD males vs untreated): trend towards decreased permeability | small intestine wet body weight/body weight ([1]; CD males vs untreated): significant increase | villus heights ([1]; CD males vs untreated): significantly longer villus heights | intestinal permeability (FITC-dextran) ([1]; RBD females or RBD males vs untreated): did not significantly affect the permeability | small intestine wet body weight/body weight ([1]; RBD males vs untreated): significant increase | length of the small intestine ([1]; animals weaned to CD and to RBD diet, vs untreated): significant increase | weight gain ([1]; male and female RBD mice weaned to CD, 0.1 mg/kg SC once a day): trends towards greater weight gain | weight ([1]; male and female mice weaned to RBD, 0.1 mg/kg SC once a day): trends towards worsening weight | bodyweight loss [2]: did not show the same loss in percent of bodyweight | bodyweight over time ([3]; 3% DSS 5 days, daily treatment 11 days, K5 0.1-1 mg/kg SC, teduglutide 0.5 mg/kg SC, cyclosporin 20 mg/kg IP): did not exhibit significant changes in bodyweight | small intestine length and weight ([3]; groups C-F vs untreated mice): significantly increased | colon length ([3]; groups D-F (K5 0.3, 1 mg/kg; teduglutide 0.5 mg/kg) vs group B): significantly increased | villus height ([3]; jejunum, groups C-F vs untreated mice (groups A-B)): significant increase | detectability in plasma after dosing [4]: not detectable after 3 hours post treatment | colon length ([5]; doses of 0.1 mg/kg and higher, vs group B): significantly increased | small intestine length ([5]; doses of 0.1 mg/kg and higher, vs untreated): significant increases | colon weight ([5]; doses of 0.3 mg/kg or higher, vs untreated): increased
